Measurements published in patent publication US10251395B2, “Substituted furano-/thienocycloalkylamino-2-pyrimidine derivatives and use thereof for controlling undesired plant growth” (Bayer CropScience Aktiengesellschaft, priority 2015, dated 2019).

Experiments:
logP (HCOOH) = type: physicochemical; settings: HCOOH (formic acid)
Text: Table 2 (physicochemical characterization of selected synthesis examples)

Abutilon theophrasti [1] = assay: Pre-emergence herbicidal effect; type: in vivo; settings: scored visually after 3 weeks
Procedure, shortened: (§1)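 After seeds are covered with sandy loam soil, the formulated compound is sprayed onto the soil surface as an aqueous suspension or emulsion containing 0.2% wetting agent. Three weeks later in the greenhouse, damage is rated by eye from 0% (like controls) to 100% (dead).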

Alopecurus myosuroides [2] = assay: Pre-emergence herbicidal effect; type: in vivo; settings: scored visually after 3 weeks
Procedure, shortened: as §1

Amaranthus retroflexus [3] = assay: Pre-emergence herbicidal effect; type: in vivo; settings: scored visually after 3 weeks
Procedure, shortened: as §1

Avena fatua [4] = assay: Pre-emergence herbicidal effect; type: in vivo; settings: Dosage 320 g/ha, scored visually after 3 weeks
Procedure, shortened: as §1

Cyperus esculentus = assay: Pre-emergence herbicidal effect; type: in vivo; settings: Dosage 320 g/ha, scored visually after 3 weeks
Procedure, shortened: as §1

Echinochloa crus-galli [5] = assay: Pre-emergence herbicidal effect; type: in vivo; settings: scored visually after 3 weeks
Procedure, shortened: as §1

Ipomoea purpurea [6] = assay: Pre-emergence herbicidal effect; type: in vivo; settings: scored visually after 3 weeks
Procedure, shortened: as §1

Lolium multiflorum [7] = assay: Pre-emergence herbicidal effect; type: in vivo; settings: Dosage 320 g/ha, scored visually after 3 weeks
Procedure, shortened: as §1

Matricaria inodora [8] = assay: Pre-emergence herbicidal effect; type: in vivo; settings: scored visually after 3 weeks
Procedure, shortened: as §1

Polygonum convolvulus [9] = assay: Pre-emergence herbicidal effect; type: in vivo; settings: scored visually after 3 weeks
Procedure, shortened: as §1

Setaria viridis [10] = assay: Pre-emergence herbicidal effect; type: in vivo; settings: scored visually after 3 weeks
Procedure, shortened: as §1

Stellaria media [11] = assay: Pre-emergence herbicidal effect; type: in vivo; settings: scored visually after 3 weeks
Procedure, shortened: as §1

Veronica persica [12] = assay: Pre-emergence herbicidal effect; type: in vivo; settings: scored visually after 3 weeks
Procedure, shortened: as §1

Viola tricolor [13] = assay: Pre-emergence herbicidal effect; type: in vivo; settings: scored visually after 3 weeks
Procedure, shortened: as §1

Abutilon theophrasti [14] = assay: Post-emergence herbicidal effect; type: in vivo; settings: assessed visually after about 3 weeks vs untreated controls
Procedure, shortened: (§2)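 Action, expressed in percent from 0 (like controls) to 100 (plants died), is read by eye about 3 weeks after foliar application. Applications use formulated product in water at 600–800 L/ha on one-leaf-stage plants sown in sandy loam.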

Alopecurus myosuroides [15] = assay: Post-emergence herbicidal effect; type: in vivo; settings: 320 g/ha, assessed visually after about 3 weeks vs untreated controls
Procedure, shortened: as §2

Amaranthus retroflexus [16] = assay: Post-emergence herbicidal effect; type: in vivo; settings: 320 g/ha, assessed visually after about 3 weeks vs untreated controls
Procedure, shortened: as §2

Avena fatua [17] = assay: Post-emergence herbicidal effect; type: in vivo; settings: assessed visually after about 3 weeks vs untreated controls
Procedure, shortened: as §2

Echinochloa crus-galli [18] = assay: Post-emergence herbicidal effect; type: in vivo; settings: assessed visually after about 3 weeks vs untreated controls
Procedure, shortened: as §2

Ipomoea purpurea [19] = assay: Post-emergence herbicidal effect; type: in vivo; settings: assessed visually after about 3 weeks vs untreated controls
Procedure, shortened: as §2

Lolium multiflorum [20] = assay: Post-emergence herbicidal effect; type: in vivo; settings: 320 g/ha, assessed visually after about 3 weeks vs untreated controls
Procedure, shortened: as §2

Matricaria inodora [21] = assay: Post-emergence herbicidal effect; type: in vivo; settings: assessed visually after about 3 weeks vs untreated controls
Procedure, shortened: as §2

Polygonum convolvulus [22] = assay: Post-emergence herbicidal effect; type: in vivo; settings: assessed visually after about 3 weeks vs untreated controls
Procedure, shortened: as §2

Setaria viridis [23] = assay: Post-emergence herbicidal effect; type: in vivo; settings: assessed visually after about 3 weeks vs untreated controls
Procedure, shortened: as §2

Stellaria media [24] = assay: Post-emergence herbicidal effect; type: in vivo; settings: assessed visually after about 3 weeks vs untreated controls
Procedure, shortened: as §2

Veronica persica [25] = assay: Post-emergence herbicidal effect; type: in vivo; settings: 80 g/ha, assessed visually after about 3 weeks vs untreated controls
Procedure, shortened: as §2

Viola tricolor [26] = assay: Post-emergence herbicidal effect; type: in vivo; settings: assessed visually after about 3 weeks vs untreated controls
Procedure, shortened: as §2

Cc1cc2c(o1)CC(C)(C)CC2Nc1ncc(C(F)(F)F)c(N)n1 (centres unmarked) [compound 21, 5-(Trifluoromethyl)-N2-(2,6,6-trimethyl-4,5,6,7-tetrahydro-1-benzofuran-4-yl)pyrimidine-2,4-diamine]
2.23: chromatographic logP (logP (HCOOH))
182.6 °C: melting point

Cc1cc2c(s1)CCC[C@H]2Nc1ncc(C(F)(F)F)c(N)n1 [compound 47, N2-[(4R)-2-Methyl-4,5,6,7-tetrahydrobenzothiophen-4-yl]-5-(trifluoromethyl)pyrimidine-2,4-diamine]
100%: ABUTH pre-emergence efficacy (herbicidal activity) (Abutilon theophrasti [1]; Dosage 320 g/ha) | ALOMY pre-emergence efficacy (herbicidal activity) (Alopecurus myosuroides [2]; Dosage 320 g/ha) | AMARE pre-emergence efficacy (herbicidal activity) (Amaranthus retroflexus [3]; Dosage 80 g/ha) | AMARE pre-emergence efficacy (herbicidal activity) (Amaranthus retroflexus [3]; Dosage 320 g/ha) | AVEFA pre-emergence efficacy (herbicidal activity) (Avena fatua [4]) | ECHCG pre-emergence efficacy (herbicidal activity) (Echinochloa crus-galli [5]; Dosage 80 g/ha) | ECHCG pre-emergence efficacy (herbicidal activity) (Echinochloa crus-galli [5]; Dosage 320 g/ha) | PHBPU pre-emergence efficacy (herbicidal activity) (Ipomoea purpurea [6]; Dosage 80 g/ha) | PHBPU pre-emergence efficacy (herbicidal activity) (Ipomoea purpurea [6]; Dosage 320 g/ha) | LOLMU pre-emergence efficacy (herbicidal activity) (Lolium multiflorum [7]) | MATIN pre-emergence efficacy (herbicidal activity) (Matricaria inodora [8]; Dosage 80 g/ha) | MATIN pre-emergence efficacy (herbicidal activity) (Matricaria inodora [8]; Dosage 320 g/ha) | POLCO pre-emergence efficacy (herbicidal activity) (Polygonum convolvulus [9]; Dosage 80 g/ha) | POLCO pre-emergence efficacy (herbicidal activity) (Polygonum convolvulus [9]; Dosage 320 g/ha) | SETVI pre-emergence efficacy (herbicidal activity) (Setaria viridis [10]; Dosage 80 g/ha) | SETVI pre-emergence efficacy (herbicidal activity) (Setaria viridis [10]; Dosage 320 g/ha) | STEME pre-emergence efficacy (herbicidal activity) (Stellaria media [11]; Dosage 80 g/ha) | STEME pre-emergence efficacy (herbicidal activity) (Stellaria media [11]; Dosage 320 g/ha) | VERPE pre-emergence efficacy (herbicidal activity) (Veronica persica [12]; Dosage 80 g/ha) | VERPE pre-emergence efficacy (herbicidal activity) (Veronica persica [12]; Dosage 320 g/ha) | VIOTR pre-emergence efficacy (herbicidal activity) (Viola tricolor [13]; Dosage 80 g/ha) | VIOTR pre-emergence efficacy (herbicidal activity) (Viola tricolor [13]; Dosage 320 g/ha) | post-emergence efficacy ALOMY (Alopecurus myosuroides [15]) | post-emergence efficacy AVEFA (Avena fatua [17]; 80 g/ha) | post-emergence efficacy ECHCG (Echinochloa crus-galli [18]; 80 g/ha) | post-emergence efficacy ECHCG (Echinochloa crus-galli [18]; 320 g/ha) | post-emergence efficacy PHBPU (Ipomoea purpurea [19]; 80 g/ha) | post-emergence efficacy PHBPU (Ipomoea purpurea [19]; 320 g/ha) | post-emergence efficacy MATIN (Matricaria inodora [21]; 320 g/ha) | post-emergence efficacy STEME (Stellaria media [24]; 80 g/ha) | post-emergence efficacy STEME (Stellaria media [24]; 320 g/ha) | post-emergence efficacy VERPE (Veronica persica [25]) | post-emergence efficacy VIOTR (Viola tricolor [26]; 80 g/ha) | post-emergence efficacy VIOTR (Viola tricolor [26]; 320 g/ha)
90%: post-emergence efficacy ABUTH (Abutilon theophrasti [14]; 80 g/ha) | post-emergence efficacy ABUTH (Abutilon theophrasti [14]; 320 g/ha) | post-emergence efficacy AMARE (Amaranthus retroflexus [16]) | post-emergence efficacy AVEFA (Avena fatua [17]; 320 g/ha) | post-emergence efficacy MATIN (Matricaria inodora [21]; 80 g/ha) | post-emergence efficacy SETVI (Setaria viridis [23]; 80 g/ha) | post-emergence efficacy SETVI (Setaria viridis [23]; 320 g/ha)
80%: ABUTH pre-emergence efficacy (herbicidal activity) (Abutilon theophrasti [1]; Dosage 80 g/ha) | ALOMY pre-emergence efficacy (herbicidal activity) (Alopecurus myosuroides [2]; Dosage 80 g/ha) | CYPES pre-emergence efficacy (herbicidal activity) (Cyperus esculentus) | post-emergence efficacy LOLMU (Lolium multiflorum [20]) | post-emergence efficacy POLCO (Polygonum convolvulus [22]; 80 g/ha) | post-emergence efficacy POLCO (Polygonum convolvulus [22]; 320 g/ha)
2.62: chromatographic logP (logP (HCOOH))
